In article PMC10672332, “Lecanicilliums A–F, Thiodiketopiperazine-Class Alkaloids from a Mangrove Sediment-Derived Fungus Lecanicillium kalimantanense” (Marine Drugs, 2023):
In brackets after ≈: the same amount, converted by molar mass. Read-outs that look alike come from different tables or passages of the source.

Key:
Staphylococcus aureus = details: cited from earlier work
[1] = tested on: human ovarian cancer cells; details: read-out: IC50 against human ovarian cancer cells; cited from earlier work
[2] = Cytotoxicity, CCK-8 method; format: cell-based; details: human
Procedure: (§1) Cytotoxic activity was evaluated using the human lung adenocarcinoma cell line H1975 and human hepatocellular carcinoma cell line HepG-2, using the CCK-8 method as described in our previous study. Briefly, each of the test compounds was dissolved in DMSO and further diluted to give final concentrations of 80, 40, 20, 10, 5, 2.5, and 1.25 μM, respectively. H1975 cells or HepG-2 cells (5 × 10^3 […]) were seeded in 96-well plates and treated with compounds at the indicated concentration for 24 hours and then 10 μL CCK-8 reagent was added to each well. The plates were incubated at 37 °C for another 4 hours. Finally, the optical density was measured at a wavelength of 450 nm with a Bio-Rad microplate reader. Dose–response curves were generated, and the IC50 values were calculated from the linear portion of log dose–response curves.

[3] = Cytotoxicity, CCK-8 method; format: cell-based; details: human; remark: listed apart in the source
Procedure: as §1

brine shrimps = assay: Brine shrimp lethality bioassay; format: in vivo; details: Table 3
Excerpt: The methods were the same as those used in our previous studies.

[4] = tested on: Escherichia coli ATCC 25922; assay: Antibacterial assay, micro broth dilution; format: cell-based; details: read-out: Antibacterial Activity (MIC) E. coli
Procedure: (§2) The micro broth dilution method was used to evaluate the antibacterial activities of compounds 1–19 against the growth of eight common pathogens: Bacillus subtilis BS01, Micrococcus luteus, Escherichia coli ATCC 25922, Staphylococcus aureus ATCC 6538, S. aureus MRSA, Streptococcus agalactiae ATCC 13813, S. iniae, and Pseudomonas aeruginosa ATCC 9027 in 96-well polystyrene plates. Vancomycin and ciprofloxacin were used as positive controls. Briefly, wells containing 100 μL bacteria dilutions (OD600 = 0.01) in Luria–Bertani (LB) medium were supplemented with different concentrations of 1–19 (80, 40, 20, 10, 5, 2.5, 1.25, and 0.625 μg/mL), vancomycin, and ciprofloxacin (40, 20, 10, 5, 2.5, 1.25, 0.625, and 0.3125 μg/mL), respectively. The MICs were determined after 24 hours’ incubation at 37 °C with the tested compounds.

S. iniae = assay: Antibacterial assay, micro broth dilution; format: cell-based; details: Streptococcus iniae, read-out: Antibacterial Activity (MIC) S. iniae
Procedure: as §2

Micrococcus luteus [5] = assay: Antibacterial assay, micro broth dilution; format: cell-based; details: read-out: Antibacterial Activity (MIC) M. luteus
Procedure: as §2

S. aureus MRSA = assay: Antibacterial assay, micro broth dilution; format: cell-based; details: Staphylococcus aureus, read-out: Antibacterial Activity (MIC) MRSA
Procedure: as §2

[6] = tested on: Staphylococcus aureus ATCC 6538; assay: Antibacterial assay, micro broth dilution; format: cell-based; details: read-out: Antibacterial Activity (MIC) S. aureus
Procedure: as §2

Bacillus subtilis BS01 = assay: Antibacterial assay, micro broth dilution; format: cell-based; details: read-out: Antibacterial Activity (MIC) B. subtilis
Procedure: as §2

[7] = tested on: Pseudomonas aeruginosa ATCC 9027; assay: Antibacterial assay, micro broth dilution; format: cell-based; details: read-out: Antibacterial Activity (MIC) P. aeruginosa
Procedure: as §2

[8] = tested on: Streptococcus agalactiae ATCC 13813; assay: Antibacterial assay, micro broth dilution; format: cell-based; details: read-out: Antibacterial Activity (MIC) S. agalactiae
Procedure: as §2

Micrococcus luteus [9] = tested on: Micrococcus luteus; parameters: method as in PMID 25574740; details: cited from earlier work
[10] = Antibacterial assays, summary in text over several pathogens; format: cell-based; details: read-out: MIC values against four pathogens
Procedure: as §2

[11] = ATCC25922, micro broth dilution, LB medium, 24 hours at 37 °C
[12] = micro broth dilution, LB medium, 24 hours at 37 °C
[13] = ATCC6538, micro broth dilution, LB medium, 24 hours at 37 °C
[14] = BS01, micro broth dilution, LB medium, 24 hours at 37 °C
[15] = ATCC9027, micro broth dilution, LB medium, 24 hours at 37 °C
[16] = ATCC13813, micro broth dilution, LB medium, 24 hours at 37 °C

| SMILES | IC50 at 24 h [2] [µM] | IC50 at 24 h [3] [µM] | Toxicity (TC50) Brine Shrimp (brine shrimps) [µg/mL] | MIC [4, 11] [µg/mL] | MIC (S. iniae; [12]) [µg/mL] | MIC (Micrococcus luteus [5]; [12]) [µg/mL] | MIC (S. aureus MRSA; [12]) [µg/mL] | MIC [6, 13] [µg/mL] | MIC (Bacillus subtilis BS01; [14]) [µg/mL] | MIC [7, 15] [µg/mL] | MIC [8, 16] [µg/mL] | also measured |
| --- | --- | --- | --- | --- | --- | --- | --- | --- | --- | --- | --- | --- |
| O=C1N2[C@H]3C(=CC=C[C@@H]3O)C[C@]23SS[C@]12C[C@H]1[C@@H]([C@@H](O)C=C[C@@H]1O)N2C3=O [brocazine G] |  |  |  |  |  |  |  |  |  |  |  | MIC against Staphylococcus aureus (Staphylococcus aureus): 0.25 µg/mL (≈ 0.615 µM); IC50 [1]: 0.66 µM |
| CS[C@@]12CC3=CC=C[C@H](OC(C)=O)[C@H]3N1C(=O)[C@]1(SC)CC3=COC=C[C@H](OC(C)=O)[C@H]3N1C2=O [Compound 12, bisdethiobis(methylsulfanyl)acetylapoaranotin] | > 80 | > 80 | 50 | > 80 | > 80 | 50 (≈ 96.4 µM) | > 80 | > 80 | > 80 | > 80 | 50 (≈ 96.4 µM) |  |
| O=C(N[C@H](CO)[C@H](O)c1ccc([N+](=O)[O-])cc1)C(Cl)Cl [chloromycetin] |  |  |  |  |  |  |  |  |  |  |  | MIC against Micrococcus luteus (Micrococcus luteus [9]): 2.0 µg/mL (≈ 6.19 µM) |
| CS[C@@]12C[C@H]3[C@@H]([C@@H](O)C=C[C@@H]3O)N1C(=O)[C@]1(SC)C[C@H]3[C@@H]([C@@H](O)C=C[C@@H]3O)N1C2=O [Penicibrocazine C] |  |  |  |  |  |  |  |  |  |  |  | MIC against Micrococcus luteus (Micrococcus luteus [9]): 0.25 µg/mL (≈ 0.55 µM) |
| CS[C@@]12CC3=COC=C[C@H](O)[C@H]3N1C(=O)[C@]1(SC)CC3=COC=C[C@H](O)[C@H]3N1C2=O [Compound 9, bisdethiobis(methylsulfanyl)deacetylaranotin] | > 80 | > 80 | >80 | > 80 | > 80 | > 80 | > 80 | > 80 | > 80 | > 80 | > 80 |  |
| CS[C@@]12CC3=COC=C[C@H](OC(C)=O)[C@H]3N1C(=O)[C@]1(SC)CC3=COC=C[C@H](O)[C@H]3N1C2=O [Compound 10, bisdethiobis(methylsulfanyl)-aranotin] | > 80 | > 80 | >80 | > 80 | > 80 | > 80 | > 80 | > 80 | > 80 | > 80 | > 80 |  |
| CSS[C@@]12CC3=COC=C[C@H](OC(C)=O)[C@H]3N1C(=O)[C@]1(SC)CC3=COC=C[C@H](OC(C)=O)[C@H]3N1C2=O [Compound 5, Lecanicillium E] | > 80 | 16.3 | 40 | 80 (≈ 141 µM) | 15 (≈ 26.5 µM) | 40 (≈ 70.6 µM) | > 80 | > 80 | 10 (≈ 17.6 µM) | > 80 | 25 (≈ 44.1 µM) | MIC [10]: 10 to 40 µg/mL (≈ 17.6 to 70.6 µM) |
| CSC12CC3=COC=CC(OC(C)=O)C3N1C(=O)C1(SC)CC3(O)C=CC(=O)C(OC(C)=O)C3N1C2=O (stereo not drawn) [Compound 4, Lecanicillium D] | > 80 | 71.5 | 80 | > 80 | 40 (≈ 72.6 µM) | > 80 | > 80 | > 80 | 50 (≈ 90.8 µM) | > 80 | > 80 |  |
| CS[C@@]12CC3=CC=C[C@H](O)[C@H]3N1C(=O)[C@]1(SC)CC3=COC=C[C@H](O)[C@H]3N1C2=O [Compound 14, bisdethiobis(methylsulfanyl)deacetylapoaranotin] | > 80 | > 80 | >80 | > 80 | 40 (≈ 92.1 µM) | > 80 | > 80 | > 80 | > 80 | > 80 | > 80 |  |
| CS[C@@]12CC3=CC=C[C@H](OC(C)=O)[C@H]3N1C(=O)[C@]1(SC)CC3=COC=C[C@H](O)[C@H]3N1C2=O [Compound 11, 8-acetyl-bisdethiobis(methylsulfanyl)apoaranotin] | > 80 | 69.3 | >80 | > 80 | 50 (≈ 105 µM) | > 80 | > 80 | > 80 | 60 (≈ 126 µM) | > 80 | > 80 |  |
| CS[C@@]1(Cc2ccccc2)NC(=O)[C@]2(SC)CC3=COC=C[C@H](O)[C@H]3N2C1=O [Compound 18, emestrin H] |  |  | >80 |  |  |  |  |  |  |  |  | IC50 at 24 h ([2]; HepG-2 cells, CCK-8, 24 hours treatment, read-out: Cytotoxicity (IC50) against HepG-2): 41.2 µM; IC50 at 24 h ([3]; H1975 cells, CCK-8, 24 hours treatment, read-out: Cytotoxicity (IC50) against H1975): 50.6 µM; MIC ([4]; ATCC25922, 24 h): > 80 µg/mL; MIC (S. iniae; 24 h): 40 µg/mL (≈ 95.6 µM); MIC (Micrococcus luteus [5]; 24 h): > 80 µg/mL; MIC (S. aureus MRSA; 24 h): > 80 µg/mL; MIC ([6]; ATCC6538, 24 h): > 80 µg/mL; MIC (Bacillus subtilis BS01; BS01, 24 h): 80 µg/mL (≈ 191 µM); MIC ([7]; ATCC9027, 24 h): > 80 µg/mL; MIC ([8]; ATCC13813, 24 h): > 80 µg/mL |
